The assay has as its target Metabotropic glutamate receptor 1 (Rattus norvegicus, UniProt P23385). The experiment in a line: Inhibition of rat mGluR1.

The structures appear in SMILES notation.

Metabotropic glutamate receptor 1, sequence (P23385 whole entry): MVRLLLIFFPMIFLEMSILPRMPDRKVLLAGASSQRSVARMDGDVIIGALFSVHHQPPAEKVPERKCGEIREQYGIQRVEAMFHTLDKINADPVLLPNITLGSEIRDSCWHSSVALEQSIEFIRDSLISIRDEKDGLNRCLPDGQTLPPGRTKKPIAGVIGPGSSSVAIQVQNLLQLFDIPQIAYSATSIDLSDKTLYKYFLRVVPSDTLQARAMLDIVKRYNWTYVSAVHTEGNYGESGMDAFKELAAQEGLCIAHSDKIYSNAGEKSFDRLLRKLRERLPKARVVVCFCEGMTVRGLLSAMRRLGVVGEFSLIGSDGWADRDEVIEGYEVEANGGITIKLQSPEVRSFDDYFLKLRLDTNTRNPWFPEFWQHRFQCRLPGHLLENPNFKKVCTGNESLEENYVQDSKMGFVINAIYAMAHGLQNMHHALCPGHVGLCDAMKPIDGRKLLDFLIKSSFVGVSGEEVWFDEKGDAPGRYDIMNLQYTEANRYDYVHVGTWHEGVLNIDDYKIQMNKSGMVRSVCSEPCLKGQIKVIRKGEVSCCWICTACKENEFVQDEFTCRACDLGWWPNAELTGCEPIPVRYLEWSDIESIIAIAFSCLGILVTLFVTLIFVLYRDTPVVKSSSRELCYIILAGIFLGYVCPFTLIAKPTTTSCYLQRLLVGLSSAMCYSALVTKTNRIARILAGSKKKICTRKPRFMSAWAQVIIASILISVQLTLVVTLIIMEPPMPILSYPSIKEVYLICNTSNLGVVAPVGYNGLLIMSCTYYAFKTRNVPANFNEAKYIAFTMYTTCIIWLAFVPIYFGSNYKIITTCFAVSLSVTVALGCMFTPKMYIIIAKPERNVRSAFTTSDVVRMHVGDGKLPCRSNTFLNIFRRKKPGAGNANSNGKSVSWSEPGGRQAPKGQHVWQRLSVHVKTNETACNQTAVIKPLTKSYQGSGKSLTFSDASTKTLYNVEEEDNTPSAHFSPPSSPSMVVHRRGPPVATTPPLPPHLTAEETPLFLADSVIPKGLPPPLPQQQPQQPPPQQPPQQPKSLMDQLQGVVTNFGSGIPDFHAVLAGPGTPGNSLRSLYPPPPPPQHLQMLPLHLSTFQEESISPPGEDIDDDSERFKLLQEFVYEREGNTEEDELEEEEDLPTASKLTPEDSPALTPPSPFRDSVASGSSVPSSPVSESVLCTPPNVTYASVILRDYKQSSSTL

In the case of `CCc1ccc(-n2cnc3c(sc4nccc(N5CCC5)c43)c2=O)cc1`, where the note is “read-out: IC50”, the IC50 came to 113 nM.

Turning to `CN(C)c1ccnc2sc3c(=O)n(-c4ccc(Cl)cc4Cl)cnc3c12`, the IC50 (read-out: IC50) amounted to 45 nM.

Regarding `CCc1ccc(-n2c(CC)nc3c(sc4nccc(N(C)C)c43)c2=O)cc1`, the IC50 (read-out: IC50) was 84 nM.

Turning to `CN(C)c1ccnc2sc3c(=O)n(C4CCCCCCC4)cnc3c12`, the IC50 (read-out: IC50) was 13 nM.

As for `CN(C)c1ccnc2sc3c(=O)n(-c4ccc(C5CC5)cc4)cnc3c12`, the IC50 (read-out: IC50) worked out at 87 nM.

Take `CN(C)c1ccnc2sc3c(=O)n(-c4ccccc4O)cnc3c12`: under “read-out: IC50”, the IC50 stood at 50 nM.

With `CCc1ccc(-n2c(C)nc3c(sc4nccc(N(C)C)c43)c2=O)cc1`, the IC50 (read-out: IC50) was 44 nM.

Turning to `CCc1ccc(-n2cnc3c(sc4nccc(NCC#N)c43)c2=O)cc1`, the IC50 runs as follows: (read-out: IC50) 49 nM; (read-out: pIC50 (converted)) 42.7 nM.

For the compound `CCCc1ccc(-n2cnc3c(sc4nccc(N(C)C)c43)c2=O)cc1`, where the note is “read-out: IC50”, the IC50 amounted to 180 nM.

With `CCCCc1nc2c(sc3nccc(N(C)C)c32)c(=O)n1-c1ccc(CC)cc1`, the IC50 (read-out: IC50) was found to be 101 nM.

In the case of `Cc1ccc(-n2cnc3c(sc4nccc(N(C)C)c43)c2=O)cc1`, the IC50 (read-out: IC50) came to 5 nM.

`CCc1ccc(-n2cnc3c(sc4nccc(NC5CC5)c43)c2=O)cc1`: under “read-out: IC50”, the IC50 turned out to be 41 nM.

Consider `CN(C)c1ccnc2sc3c(=O)n(CC4CCCC4)cnc3c12`, for which the IC50 (read-out: IC50) was 26 nM.

On to `CN(C)c1ccnc2sc3c(=O)n(C45CC6CC(CC(C6)C4)C5)cnc3c12`, for which the IC50 (read-out: IC50) worked out at 76 nM.

On to `CN(C)c1ccnc2sc3c(=O)n(-c4ccc5cc[nH]c5c4)cnc3c12`, for which, under “read-out: IC50”, the IC50 came out at 122 nM.

Regarding `CN(C)c1ccnc2sc3c(=O)n(C4CC4)cnc3c12`, the IC50 (read-out: IC50) came out at 632 nM.

`CCC(CC)n1cnc2c(sc3nccc(N(C)C)c32)c1=O`: under “read-out: IC50”, the IC50 was determined as 335 nM.

In the case of `CN(C)c1ccnc2sc3c(=O)n(C4CCC4)cnc3c12`, the IC50 (read-out: IC50) amounted to 167 nM.

With `CN(C)c1ccnc2sc3c(=O)n(-c4ccc(Cl)cc4)cnc3c12`, under “read-out: IC50”, the IC50 came out at 16 nM.

For `C[N+](C)([O-])c1ccnc2sc3c(=O)n(C4CCCCCC4)cnc3c12`, the IC50 (read-out: IC50) was found to be 167 nM.

On to `CCc1ccccc1-n1cnc2c(sc3nccc(N(C)C)c32)c1=O`, for which, under “read-out: IC50”, the IC50 was found to be 251 nM.

With `CN(C)c1ccnc2sc3c(=O)n(C4CCCC4)cnc3c12`, the IC50 (read-out: IC50) came to 5 nM.

`CCc1ccc(-n2cnc3c(sc4nccc(N(C)CC)c43)c2=O)cc1`: the IC50 (read-out: IC50) stood at 37 nM.

As to `CCc1ccc(-n2cnc3c(sc4nccc(N(C)C)c43)c2=O)cc1`, the IC50 (read-out: IC50) came to 3 nM.

Regarding `CCc1cccc(-n2cnc3c(sc4nccc(N(C)C)c43)c2=O)c1`, the IC50 (read-out: IC50) came out at 9 nM.

Take `CN(C)c1ccnc2sc3c(=O)n(-c4ccc(C(F)(F)F)cc4)cnc3c12`: the IC50 (read-out: IC50) came out at 32 nM.

Consider `CCc1ccc(-n2cnc3c(sc4nccc(NCC(F)(F)F)c43)c2=O)cc1`, for which, where the note is “read-out: IC50”, the IC50 was found to be 99 nM.

Regarding `CN(C)c1ccnc2sc3c(=O)n(-c4ccc(C(C)(C)C)cc4)cnc3c12`, the IC50 (read-out: IC50) came to 8500 nM.

As to `CN(C)c1ccnc2sc3c(=O)n(-c4ccccc4)cnc3c12`, the IC50 (read-out: IC50) is 20 nM.

For `CC1CCC(n2cnc3c(sc4nccc(N(C)C)c43)c2=O)CC1` (stereo unspecified), the IC50 (read-out: IC50) is 140 nM.

In the case of `CN(C)c1ccnc2sc3c(=O)n(-c4ccc(F)cc4)cnc3c12`, the IC50 (read-out: IC50) was 23 nM.

For the compound `COc1ccc(-n2cnc3c(sc4nccc(N(C)C)c43)c2=O)cn1`, the IC50 (read-out: IC50) was 39 nM.

As to `CCc1ccc(-n2cnc3c(sc4nccc(N(C)CCOC)c43)c2=O)cc1`, for the setting “read-out: IC50”, the IC50 amounted to 71 nM.

`CCc1ccc(-n2cnc3c(sc4nccc(NC)c43)c2=O)cc1`: the IC50 (read-out: IC50) amounted to 98 nM.

Regarding `CC1CCCCC1n1cnc2c(sc3nccc(N(C)C)c32)c1=O` (stereo unspecified), the IC50 (read-out: IC50) is 130 nM.

For the compound `CN(C)c1ccnc2sc3c(=O)n(CC4CCCCC4)cnc3c12`, the IC50 (read-out: IC50) came to 139 nM.

Regarding `Cc1ccc(-n2cnc3c(sc4nccc(N(C)C)c43)c2=O)c(C)c1`, the IC50 (read-out: IC50) was found to be 17 nM.

Take `CN(C)c1ccnc2sc3c(=O)n(-c4ccc(Br)cc4)cnc3c12`: under “read-out: IC50”, the IC50 was 4 nM.

With `CN(C)c1ccnc2sc3c(=O)n(N4CCCCCC4)cnc3c12`, the IC50 (read-out: IC50) was 10 nM.

Consider `CN(C)c1ccnc2sc3c(=O)n(Cc4ccccc4)cnc3c12`, for which the IC50 (read-out: IC50) was 281 nM.

Consider `CC(C)c1ccc(-n2cnc3c(sc4nccc(N(C)C)c43)c2=O)cc1`, for which, where the note is “read-out: IC50”, the IC50 came to 407 nM.

Consider `CN(C)c1ccnc2sc3c(=O)n(C4CCCCC4)cnc3c12`, for which the IC50 (read-out: IC50) is 50 nM.

On to `CCc1ccc(-n2cnc3c(sc4nccc([N+](C)(C)[O-])c43)c2=O)cc1`, for which the IC50 (read-out: IC50) was found to be 306 nM.

As for `CN(C)c1ccnc2sc3c(=O)n(C4CCCCCC4)cnc3c12`, the IC50 (read-out: IC50) came to 1 nM.

Regarding `CC1CCCC(n2cnc3c(sc4nccc(N(C)C)c43)c2=O)C1` (stereo unspecified), the IC50 (read-out: IC50) was determined as 482 nM.
